Legend:
[1] = system: acetogen strain; test: Steady-state culture (dilution rate of 0.018/h) with CO and CO2 gas substrates; assay type: cell-based; conditions: methanol added
Text: The method for culturing an acetogen strain may include a medium injection step of injecting the acetogen strain culture medium composition containing the C1 compound into a bioreactor; a strain inoculation step of inoculating the acetogenic strain into the culture medium composition; and a bioreactor driving step of culturing the acetogenic strain by driving the bioreactor. […]

[2] = system: acetogen strain; test: Growth inhibition by high methanol concentration in the medium; assay type: cell-based; conditions: with respect to the total medium composition
Text: In this case, the methanol may be contained in a concentration of more than 0 M and 1.5 M or less with respect to the total medium composition.
If the concentration of methanol exceeds 1.5 M, it is not preferable because growth inhibition occurs due to the addition of a high concentration of organic solvent.

Question: `CO` [methanol] was tested. Which “cell concentration in the steady state” value [1] did it give?
Answer: The value was 17.4 g/L.

Question: What about the cell conversion yield [1] of the same compound?
Answer: The cell conversion yield was 0.008 g DCW/mmol MeOH.

Question: And the “concentration of methanol at which growth inhibition occurs” value [2]?
Answer: Its value is “exceeds 1.5 M”.

From patent US20240209401A1, “CULTURE MEDIUM COMPOSITION FOR INCREASING GROWTH AND METABOLIC RATE OF ACETOGENIC STRAIN AND METHOD FOR CULTURING ACETOGENIC STRAIN USING THE SAME” (GWANGJU INSTITUTE OF SCIENCE AND TECHNOLOGY, priority 2022, published 2024)
